Patent US20210379033A1, “METHODS OF TREATING CANCER WITH ARYL HYDROCARBON RECEPTOR ANTAGONISTS” (Magenta Therapeutics Inc., priority 2018, published 2021)
pEC50: −log10 of the molar value. Where two headings read alike, the source gives them in different places.

How the values were obtained:
[1] = biological target: T1, aryl hydrocarbon receptor (Homo sapiens, UniProt P35869); assay: Aryl hydrocarbon receptor-driven luciferase reporter in transiently transfected HepG2 cells (Example 3); assay type: cell-based; settings: absence (FIG. 1) or presence (FIG. 2) of agonist VAF347 (80 nM), luciferase six hours after plating
T1 construct: HepG2 cells transiently transfected with the pGudLuc8.1 plasmid were thawed and 25,000 cells were plated per well; endogenous in cells; host or cells: HepG2
T1 sequence (P35869 11-848): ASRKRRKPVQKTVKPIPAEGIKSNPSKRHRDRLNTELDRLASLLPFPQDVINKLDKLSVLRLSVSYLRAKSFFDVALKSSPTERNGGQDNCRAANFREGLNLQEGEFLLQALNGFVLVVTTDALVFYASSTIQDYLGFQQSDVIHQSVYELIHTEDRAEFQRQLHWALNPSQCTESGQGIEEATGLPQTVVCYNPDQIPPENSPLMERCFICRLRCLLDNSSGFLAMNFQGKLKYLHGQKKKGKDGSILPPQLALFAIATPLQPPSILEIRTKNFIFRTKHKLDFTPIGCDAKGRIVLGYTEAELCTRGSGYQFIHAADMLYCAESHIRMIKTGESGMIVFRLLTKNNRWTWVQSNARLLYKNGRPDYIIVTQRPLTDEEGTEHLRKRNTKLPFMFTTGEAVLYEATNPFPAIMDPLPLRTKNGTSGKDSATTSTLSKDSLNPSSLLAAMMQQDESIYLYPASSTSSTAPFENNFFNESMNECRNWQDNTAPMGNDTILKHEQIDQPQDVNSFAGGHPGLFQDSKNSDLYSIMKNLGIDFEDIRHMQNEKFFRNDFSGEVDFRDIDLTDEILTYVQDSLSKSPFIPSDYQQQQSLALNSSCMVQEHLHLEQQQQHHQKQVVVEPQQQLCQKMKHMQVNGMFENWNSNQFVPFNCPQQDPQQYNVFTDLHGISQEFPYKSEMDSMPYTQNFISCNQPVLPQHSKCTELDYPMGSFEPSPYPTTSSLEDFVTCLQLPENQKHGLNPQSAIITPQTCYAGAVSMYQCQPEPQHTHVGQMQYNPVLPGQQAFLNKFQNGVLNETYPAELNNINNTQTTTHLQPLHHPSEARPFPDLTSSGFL
Protocol: Experimental details for this experiment are reported in Example 3, below.
To determine the ability of compounds (5) and (16) to inhibit the activity of the aryl hydrocarbon receptor and to induce the proliferation of hematopoietic stem cells, a series of HSC expansion experiments were conducted. In the first experiment, compounds (5) and (16) were assessed for their capacity to attenuate aryl hydrocarbon receptor signaling. To this end, HepG2 hepatocytes were transiently transfected with a luciferase reporter construct under the control of a promoter responsive to aryl hydrocarbon receptor signal transduction. The cells were plated at a density of 25,000 cells per well in a microtiter plate. The HepG2 cells were immediately treated with compound (5) or (16) in the absence (FIG. 1) or presence (FIG. 2) of the aryl hydrocarbon receptor agonist, VAF347 (80 nM). Luciferase activity was subsequently analyzed six hours after plating.

[2] = biological target: T2, aryl hydrocarbon receptor (AHR) (Homo sapiens, UniProt P35869); assay: AHR antagonist assay: luciferase reporter in HepG2 cells transiently transfected with pGudLuc8.1; assay type: cell-based; settings: HepG2 cells, 25,000 cells per well, luciferase activity 24 hours post-culture
T2 construct: HepG2 cells transiently transfected with the pGudLuc8.1 plasmid were thawed and 25,000 cells were plated per well; endogenous in cells; host or cells: HepG2
T2 sequence (P35869 11-848): T1 sequence (P35869 11-848)
Protocol: To determine the activity of a scale-up batch of Compound (24), individual enantiomers, and two derivatives Compound (27) and Compound (28) were evaluated for AHR antagonist activity. The compounds were compared to control AHR antagonist SR1, an additional control AHR antagonist, and stored sample of Compound (24)
Methods—HepG2 cells transiently transfected with the pGudLuc8.1 plasmid were thawed and 25,000 cells were plated per well and immediately treated the AHR agonist VAF347 (fixed at 40 nM) and/or the indicated AHR antagonists. Luciferase activity was measured 24 hours post-culture, corresponding to endogenous AHR antagonist activity (without VAF347, FIG. 8) or in the presence of VAF347 (FIG. 9). All synthesized compounds show equivalent AHR antagonist activity if not greater than SR1.

Row | pEC50 ([2]; AHR agonist VAF347 fixed at 40 nM, read-out: AHR Antagonist Activity in the Presence of VAF347 EC50) | pEC50 ([2]; without VAF347, read-out: Endogenous AHR Antagonist Activity EC50) | Structure (SMILES) | suppression of aryl hydrocarbon receptor activity (luciferase) [1]
1 |  |  | CCC(C)c1cnc2c(NCCc3c[nH]c4ccccc34)cc(-c3cncc(F)c3)cn12 (stereo not shown) [Compound (5)] | capable of suppressing aryl hydrocarbon receptor activity even in the presence of the activator VAF347
2 |  |  | CCC(C)c1cnc2c(NCCc3c[nH]c4ccccc34)nc(-c3cncc(F)c3)cn12 (stereo not shown) [Compound (16)] | capable of suppressing aryl hydrocarbon receptor activity even in the presence of the activator VAF347
3 | 6.71 | 7.48 | CC(C)n1cnc2c(NCCc3ccc(O)cc3)nc(-c3csc4ccccc34)nc21 [SR1] | 
